One assay concerns Aβ42-α7nAChR complex. Briefly: Lymphocyte co-immunoprecipitation / Western blot. In kind it is cell-based, human. (Immunoblotting shows a protein as a band on a membrane.)
For another assay, the target named is T1, TLR4-FLNA complexes (Mus musculus, UniProt Q8BTM8).
T1 construct: measuring α7nAChR and TLR4 contents in anti-FLNA immunoprecipitate by Western blotting; endogenous in cells; host or cells: trunk-blood lymphocytes of E129 and tau/APP695sw/PS1 transgenic mice
The assay is described as follows: AD transgenic mouse oral treatment, lymphocyte anti-FLNA immunoprecipitation / Western blot. The note with it: 30 mg/kg C0105 orally for 2 months; AD transgenic mice from age 4 and 8 months. The format is in vivo. How it is done: (§1) FIG. 19, in five panels as FIG. 19A and FIG. 19B, FIG. 19C, FIG. 19D and FIG. 19E, illustrate the effects of oral administration of 30 mg/kg of Compound C0105 for a period of two months to E129 mice and AD transgenic (tau/APP695sw(-9E0/PS1) mice beginning at the ages of 4 and 8 months. Mice were sacrificed, and their brains extracted/dissected to confirm pathologies. Trunk blood was collected and lymphocyte lysate preparations were analyzed for levels of α7nAChR and FLNA as well as TLR4 and FLNA by measuring α7nAChR and TLR4 contents in anti-FLNA immunoprecipitates by Western blotting and visualization with FITC. Data are expressed as the ratios of optical intensities of α7nAChR to FLNA (FIGS. 19B and 19C) and TLR4 to FLNA (FIGS. 19D and 19E). n=5. […]
(§2) To assess the C0105's AD treatment efficacy, E129 mice and AD transgenic (tau/APP695sw(-9E)/PS1) mice at age of 4-months (minimal plaque pathologies) and 8-months (established plaque pathologies) were treated orally with 30 mg/kg of C0105 for 2 months. […] The protein bands were detected using a chemiluminescent method, visualized by exposure to x-ray film and quantified by densitometric scan.
(§3) The data were expressed as the ratios of optical intensities of α7nAChR to FLNA and TLR4 to FLNA. […]

The target of a further assay is T2, α7nAChR-FLNA complexes (Mus musculus, UniProt Q8BTM8).
T2 construct: measuring α7nAChR and TLR4 contents in anti-FLNA immunoprecipitate by Western blotting; endogenous in cells; host or cells: trunk-blood lymphocytes of E129 and tau/APP695sw/PS1 transgenic mice
The assay is described as above. The note with it: 30 mg/kg C0105 orally for 2 months; AD transgenic mice from age 4 and 8 months. In kind it is in vivo. The protocol: as §1, §2, §3

Another assay addresses T3, TLR4/FLNA (Rattus norvegicus, UniProt A0A8I5ZV49).
T3 construct: from tissue; host or cells: rat frontal cortical synaptosomes
Briefly: Rat frontal cortical synaptosomes treated with Aβ42, anti-FLNA immunoprecipitation / Western blot. In kind it is cell-based. The note with it: 1 or 10 nM compound, simultaneously or 10 min prior to 0.1 μM Aβ42; Dunnett's test. The protocol: The complexes in the solubilized synaptosomes, and α7nAChR, TLR4 and FLNA levels in the anti-FLNA immunoprecipitates were determined by Western blotting (FIG. 15A) in which numerals outside of and to the left of the blots are as discussed before. Amounts present in the blots were quantified by densitometry (FIG. 15B). […] Structural formulas of the compounds used in this and the other figures are provided hereinafter.

This note sets out measurements from US10222368B2 (priority 2012, dated 2019).

T2 sequence (Q8BTM8 2-2647 limits assumed, one chain of several): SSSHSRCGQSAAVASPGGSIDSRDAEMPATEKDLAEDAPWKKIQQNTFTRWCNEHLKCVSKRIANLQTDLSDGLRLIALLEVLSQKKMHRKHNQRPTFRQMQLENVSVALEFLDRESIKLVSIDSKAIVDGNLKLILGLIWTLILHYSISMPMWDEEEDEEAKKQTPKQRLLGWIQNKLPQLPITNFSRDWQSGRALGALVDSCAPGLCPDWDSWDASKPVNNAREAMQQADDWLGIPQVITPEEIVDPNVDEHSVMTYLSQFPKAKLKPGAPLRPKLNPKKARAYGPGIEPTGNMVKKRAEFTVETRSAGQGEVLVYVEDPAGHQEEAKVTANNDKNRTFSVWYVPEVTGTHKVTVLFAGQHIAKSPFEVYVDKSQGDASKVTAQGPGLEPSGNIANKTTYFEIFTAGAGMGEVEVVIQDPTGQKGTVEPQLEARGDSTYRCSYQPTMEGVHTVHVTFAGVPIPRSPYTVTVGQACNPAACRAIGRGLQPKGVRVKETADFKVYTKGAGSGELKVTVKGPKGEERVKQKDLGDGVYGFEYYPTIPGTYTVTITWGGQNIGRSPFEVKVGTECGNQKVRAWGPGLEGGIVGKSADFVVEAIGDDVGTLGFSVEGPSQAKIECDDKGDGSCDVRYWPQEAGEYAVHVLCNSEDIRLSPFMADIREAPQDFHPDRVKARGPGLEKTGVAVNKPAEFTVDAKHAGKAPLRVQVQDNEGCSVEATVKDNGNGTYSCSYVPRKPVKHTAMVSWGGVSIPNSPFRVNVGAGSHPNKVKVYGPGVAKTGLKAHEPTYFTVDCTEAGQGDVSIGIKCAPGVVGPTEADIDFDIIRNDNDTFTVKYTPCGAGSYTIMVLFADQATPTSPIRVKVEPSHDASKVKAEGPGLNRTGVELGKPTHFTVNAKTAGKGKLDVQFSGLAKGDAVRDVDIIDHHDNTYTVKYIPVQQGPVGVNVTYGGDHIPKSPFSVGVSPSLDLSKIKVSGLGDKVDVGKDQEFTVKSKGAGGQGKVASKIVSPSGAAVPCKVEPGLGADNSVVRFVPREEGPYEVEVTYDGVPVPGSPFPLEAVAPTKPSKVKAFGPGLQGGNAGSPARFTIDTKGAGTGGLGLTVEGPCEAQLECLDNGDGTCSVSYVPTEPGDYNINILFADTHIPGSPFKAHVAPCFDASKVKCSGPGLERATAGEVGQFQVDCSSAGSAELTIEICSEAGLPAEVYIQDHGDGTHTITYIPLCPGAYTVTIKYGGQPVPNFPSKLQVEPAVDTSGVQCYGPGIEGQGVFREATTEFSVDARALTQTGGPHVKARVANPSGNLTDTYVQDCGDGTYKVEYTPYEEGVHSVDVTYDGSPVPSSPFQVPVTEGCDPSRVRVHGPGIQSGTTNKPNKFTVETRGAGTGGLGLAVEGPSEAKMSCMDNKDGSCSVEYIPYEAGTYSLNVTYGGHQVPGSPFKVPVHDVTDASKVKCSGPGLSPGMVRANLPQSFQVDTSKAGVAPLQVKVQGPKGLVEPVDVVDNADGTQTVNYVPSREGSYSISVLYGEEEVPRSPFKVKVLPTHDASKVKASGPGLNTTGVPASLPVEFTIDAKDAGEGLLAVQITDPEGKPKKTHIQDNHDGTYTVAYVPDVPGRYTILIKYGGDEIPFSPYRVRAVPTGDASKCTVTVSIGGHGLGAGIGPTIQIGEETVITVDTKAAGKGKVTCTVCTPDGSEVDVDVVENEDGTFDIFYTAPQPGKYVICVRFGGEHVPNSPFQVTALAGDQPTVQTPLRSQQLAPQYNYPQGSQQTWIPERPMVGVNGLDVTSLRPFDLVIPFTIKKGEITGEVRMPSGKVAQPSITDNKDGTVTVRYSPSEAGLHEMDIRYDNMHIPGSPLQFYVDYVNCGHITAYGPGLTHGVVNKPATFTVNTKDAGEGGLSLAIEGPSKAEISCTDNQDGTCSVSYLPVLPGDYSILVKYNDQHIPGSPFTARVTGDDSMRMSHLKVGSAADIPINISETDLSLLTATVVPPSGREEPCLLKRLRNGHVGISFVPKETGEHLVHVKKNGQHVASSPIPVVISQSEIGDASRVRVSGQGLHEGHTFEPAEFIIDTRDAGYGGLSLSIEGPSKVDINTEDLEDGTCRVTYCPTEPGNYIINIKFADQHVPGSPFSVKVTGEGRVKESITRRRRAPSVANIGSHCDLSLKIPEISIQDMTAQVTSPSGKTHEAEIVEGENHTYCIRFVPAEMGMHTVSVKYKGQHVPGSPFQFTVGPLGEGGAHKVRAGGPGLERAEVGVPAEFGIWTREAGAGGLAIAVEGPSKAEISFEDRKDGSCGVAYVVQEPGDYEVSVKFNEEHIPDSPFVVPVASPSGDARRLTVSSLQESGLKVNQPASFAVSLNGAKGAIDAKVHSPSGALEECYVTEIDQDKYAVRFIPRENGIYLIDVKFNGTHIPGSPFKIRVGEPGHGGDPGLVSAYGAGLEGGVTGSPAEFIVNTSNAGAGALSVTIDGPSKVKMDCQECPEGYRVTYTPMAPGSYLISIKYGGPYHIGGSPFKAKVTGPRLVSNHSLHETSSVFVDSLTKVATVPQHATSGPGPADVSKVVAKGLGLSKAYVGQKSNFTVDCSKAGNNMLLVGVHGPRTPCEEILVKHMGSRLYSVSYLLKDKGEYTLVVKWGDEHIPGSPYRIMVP
T1 sequence (Q8BTM8 2-2647 limits assumed, one chain of several): as above

`CN1CCC2(CC1)NCC(=O)N2Cc1ccccc1` [Compound C0105]: in the assay with Aβ42-α7nAChR complex (1 nM C0105, 30 min, lymphocytes of 20 AD subjects), the “Reduction of α7nAChR/Aβ42 complex level (% inhibition)” value was “approximately 50%”. The “Effect on α7nAChR/Aβ42 complex level (in words)” value in the assay with Aβ42-α7nAChR complex (1 nM C0105, lymphocytes of 10 YCI controls) is reported as “no discernible effect”. For the same compound, the “Effect on elevated TLR4-FLNA complexes in lymphocytes (in words)” value on TLR4-FLNA complexes is reported as “robustly normalized”. Besides, the “Effect on elevated α7nAChR-FLNA complexes in lymphocytes (in words)” value on α7nAChR-FLNA complexes is “robustly normalized”. Moreover, at TLR4/FLNA, the “TLR4/FLNA ratio versus Aβ42 alone (in words)” value was “statistically different from Aβ42 alone”.
